Biological target: TBK1 (Homo sapiens (Human), UniProt Q9UHD2)
Experiment: TBK1 low ATP kinase assay (in vitro assay 1)
Format: biochemical
Conditions: in vitro assay 1, read-out: TBK1 low ATP kinase assay IC50

Sequence of TBK1 (Q9UHD2 whole entry): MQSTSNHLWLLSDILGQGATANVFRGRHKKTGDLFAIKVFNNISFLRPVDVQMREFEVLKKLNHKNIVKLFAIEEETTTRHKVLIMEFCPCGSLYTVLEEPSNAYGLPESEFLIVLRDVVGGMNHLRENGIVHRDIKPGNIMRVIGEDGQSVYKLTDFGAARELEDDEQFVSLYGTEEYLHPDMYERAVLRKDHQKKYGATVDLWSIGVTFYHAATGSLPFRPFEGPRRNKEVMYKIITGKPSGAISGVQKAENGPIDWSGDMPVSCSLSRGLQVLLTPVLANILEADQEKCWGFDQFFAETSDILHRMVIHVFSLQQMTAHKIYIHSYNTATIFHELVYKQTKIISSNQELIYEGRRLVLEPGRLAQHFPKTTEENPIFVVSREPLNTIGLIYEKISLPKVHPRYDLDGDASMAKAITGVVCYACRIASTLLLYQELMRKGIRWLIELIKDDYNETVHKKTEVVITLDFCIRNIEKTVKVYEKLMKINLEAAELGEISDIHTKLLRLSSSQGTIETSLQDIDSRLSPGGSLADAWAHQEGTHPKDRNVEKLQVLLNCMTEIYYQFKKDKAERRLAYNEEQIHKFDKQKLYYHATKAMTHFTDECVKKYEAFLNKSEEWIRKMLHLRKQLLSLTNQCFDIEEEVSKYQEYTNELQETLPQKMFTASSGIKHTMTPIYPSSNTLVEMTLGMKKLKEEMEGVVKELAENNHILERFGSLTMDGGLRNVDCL

| Structure (SMILES) | IC50 |
| --- | --- |
| COc1c(C)ncnc1-c1ccc2nc(Nc3cc(C(C)N4CCN(C(=O)CC(F)(F)F)CC4)ccn3)[nH]c2c1 (single isomer, unassigned) [Example 83.03, 3,3,3-trifluoro-1-{4-[(1R or 1S)-1-(2-{[6-(5-methoxy-6-methylpyrimidin-4-yl)-1H-benzimidazol-2-yl]amino}pyridin-4-yl)ethyl]piperazin-1-yl}propan-1-one] | 2.2 nM |
| CC(=O)N1CCN(Cc2ccnc(Nc3nc4ccc(-c5ncnc(C)c5C)cc4[nH]3)c2)CC1 [Example 32.03, 1-{4-[(2-{[6-(5,6-dimethylpyrimidin-4-yl)-1H-benzimidazol-2-yl]amino}pyridin-4-yl)methyl]piperazin-1-yl}ethanone] | 5190 nM |
| Cc1cnn(C)c1-c1ccc2nc(Nc3cc(C(C)N4CCN(C(=O)CC(F)(F)F)CC4)ccn3)[nH]c2c1 (single isomer, unassigned) [Example 73.01, 1-{4-[(1R or 1S)-1-(2-{[6-(1,4-dimethyl-1H-pyrazol-5-yl)-1H-benzimidazol-2-yl]amino}pyridin-4-yl)ethyl]piperazin-1-yl}-3,3,3-trifluoropropan-1-one] | 67 nM |
| O=C(CC(F)(F)F)N1CCN(Cc2ccnc(Nc3nc4ccc(-c5nnc(CC6CCC6)o5)cc4[nH]3)c2)CC1 [Example 126.02, 1-(4-{[2-({6-[5-(cyclobutylmethyl)-1,3,4-oxadiazol-2-yl]-1H-benzimidazol-2-yl}amino)pyridin-4-yl]methyl}piperazin-1-yl)-3,3,3-trifluoropropan-1-one] | 3.9 nM |
| CC(c1ccnc(Nc2nc3ccc(-c4cc(N5CCC5)ncn4)cc3[nH]2)c1)N1CCN(C(=O)CC(F)(F)F)CC1 (single isomer, unassigned) [Example 115.02, 1-(4-{(1R or 1S)-1-[2-({6-[6-(azetidin-1-yl)pyrimidin-4-yl]-1H-benzimidazol-2-yl}amino)pyridin-4-yl]ethyl}piperazin-1-yl)-3,3,3-trifluoropropan-1-one] | 0.76 nM |
| O=C(CC(F)(F)F)N1CCN(Cc2ccnc(Nc3nc4ccc(-c5cc(NC6CC6)ncn5)cc4[nH]3)c2)CC1 [Example 151.02, 1-(4-{[2-({6-[6-(cyclopropylamino)pyrimidin-4-yl]-1H-benzimidazol-2-yl}amino)pyridin-4-yl]methyl}piperazin-1-yl)-3,3,3-trifluoropropan-1-one] | 2.1 nM |
| COc1nccc(-c2ccc3nc(Nc4cc(CN5CCN(C(=O)C6CC6)CC5)ccn4)[nH]c3c2)c1C [Example 10.01, cyclopropyl{4-[(2-{[6-(2-methoxy-3-methylpyridin-4-yl)-1H-benzimidazol-2-yl]amino}pyridin-4-yl)methyl]piperazin-1-yl}methanone] | 2260 nM |
| Cc1noc(-c2ccc3nc(Nc4cc(CN5CCN(C(=O)c6ccccc6)CC5)ccn4)[nH]c3c2)n1 [Example 101.10, {4-[(2-{[6-(3-methyl-1,2,4-oxadiazol-5-yl)-1H-benzimidazol-2-yl]amino}pyridin-4-yl)methyl]piperazin-1-yl}(phenyl)methanone] | 180 nM |
| COc1cncnc1-c1ccc2nc(Nc3cc(CN4CCN(C(=O)N5CCCCC5)CC4)ccn3)[nH]c2c1 [Example 35.01.06, {4-[(2-{[6-(5-methoxypyrimidin-4-yl)-1H-benzimidazol-2-yl]amino}pyridin-4-yl)methyl]piperazin-1-yl}(piperidin-1-yl)methanone] | 47.9 nM |
| CC(c1ccnc(Nc2nc3ccc(-c4cc(OCC(F)(F)C(F)(F)F)ncn4)cc3[nH]2)c1)N1CCN(C(=O)C2(C(F)(F)F)CC2)CC1 (single isomer, unassigned) [Example 166.04, (4-{(1R or 1S)-1[2-({6-[6-(2,2,3,3,3-pentafluoropropoxy)pyrimidin-4-yl]-1H-benzimidazol-2-yl}amino)pyridin-4-yl]ethyl}piperazin-1-yl)[1-(trifluoromethyl)cyclopropyl]methanone] | 54.2 nM |
| CCOc1cnc(C)cc1-c1ccc2nc(Nc3cc(CN4CCN(C(=O)C5CCC5)CC4)ccn3)[nH]c2c1 [Example 09.04, cyclobutyl{4-[(2-{[6-(5-ethoxy-2-methylpyridin-4-yl)-1H-benzimidazol-2-yl]amino}pyridin-4-yl)methyl]piperazin-1-yl}methanone] | 352 nM |
| Cc1nccc(-c2ccc3nc(Nc4cc(C(C)N5CCN(C(=O)CC(F)(F)F)CC5)ccn4)[nH]c3c2)n1 (single isomer, unassigned) [Example 24.05.01.B, 3,3,3-trifluoro-1-{4-[(1S or 1R)-1-(2-{[6-(2-methylpyrimidin-4-yl)-1H-benzimidazol-2-yl]amino}pyridin-4-yl)ethyl]piperazin-1-yl}propan-1-one] | 6.62 nM |
| Cc1noc(-c2ccc3nc(Nc4cc(CN5CCN(C(=O)N6CCCC6)CC5)ccn4)[nH]c3c2)n1 [Example 101.31, {4-[(2-{[6-(3-methyl-1,2,4-oxadiazol-5-yl)-1H-benzimidazol-2-yl]amino}pyridin-4-yl)methyl]piperazin-1-yl}(pyrrolidin-1-yl)methanone] | 510 nM |
| Cc1noc(-c2ccc3nc(Nc4cc(CN5CCN(c6ccncc6)CC5)ccn4)[nH]c3c2)n1 [Example 101.12, 6-(3-methyl-1,2,4-oxadiazol-5-yl)-N-(4-{[4-(pyridin-4-yl)piperazin-1-yl]methyl}pyridin-2-yl)-1H-benzimidazol-2-amine] | 450 nM |
| CCn1cc(-c2ccc3nc(Nc4cc(CN5CCN(C(=O)C6CC6)CC5)ccn4)[nH]c3c2)cn1 [Example 38.03, cyclopropyl{4-[(2-{[6-(1-ethyl-1H-pyrazol-4-yl)-1H-benzimidazol-2-yl]amino}pyridin-4-yl)methyl]piperazin-1-yl}methanone] | 55.8 nM |
| Cc1noc(-c2ccc3nc(Nc4cc(CN5CCN(C(=O)C6CC6)CC5)ccn4)[nH]c3c2)n1 [Example 16.01.04, cyclopropyl{4-[(2-{[6-(3-methyl-1,2,4-oxadiazol-5-yl)-1H-benzimidazol-2-yl]amino}pyridin-4-yl)methyl]piperazin-1-yl}methanone] | 67 nM |
| CC(c1ccnc(Nc2nc3ccc(-c4cc(C(F)(F)F)ncn4)c(F)c3[nH]2)c1)N1CCN(C(=O)CC(F)(F)F)CC1 (single isomer, unassigned) [Example 173.02, 3,3,3-trifluoro-1-(4-{(1R or 1S)-1-[2-({7-fluoro-6-[6-(trifluoromethyl)pyrimidin-4-yl]-1H-benzimidazol-2-yl}amino)pyridin-4-yl]ethyl}piperazin-1-yl)propan-1-one] | 77.1 nM |
| Cc1noc(-c2ccc3nc(Nc4cc(CN5CCN(c6ccc(C(F)(F)F)cn6)CC5)ccn4)[nH]c3c2)n1 [Example 101.08, 6-(3-methyl-1,2,4-oxadiazol-5-yl)-N-[4-({4-[5-(trifluoromethyl)pyridin-2-yl]piperazin-1-yl}methyl)pyridin-2-yl]-1H-benzimidazol-2-amine] | > 20000 nM |
| CCN(CC)c1cc(-c2ccc3nc(Nc4cc(CN5CCN(C(=O)C6CC6)CC5)ccn4)[nH]c3c2)ncn1 [Example 155.03, cyclopropyl(4-{[2-({6-[6-(diethylamino)pyrimidin-4-yl]-1H-benzimidazol-2-yl}amino)pyridin-4-yl]methyl}piperazin-1-yl)methanone] | 17 nM |
| Cc1noc(C)c1-c1cc(-c2ccc3nc(Nc4cc(CN5CCN(C(=O)OC(C)(C)C)CC5)ccn4)[nH]c3c2)ncn1 [Example 92.01, tert-butyl 4-{[2-({6-[6-(3,5-dimethyl-1,2-oxazol-4-yl)pyrimidin-4-yl]-1H-benzimidazol-2-yl}amino)pyridin-4-yl]methyl}piperazine-1-carboxylate] | 88 nM |
| Cc1noc(-c2ccc3nc(Nc4cc(CN5CCN(C(=O)C6CC6)C[C@H]5C)ccn4)[nH]c3c2)n1 [Example 16.03.04, cyclopropyl{(3R)-3-methyl-4-[(2-{[6-(3-methyl-1,2,4-oxadiazol-5-yl)-1H-benzimidazol-2-yl]amino}pyridin-4-yl)methyl]piperazin-1-yl}methanone] | 54.6 nM |
| COc1c(-c2ccc3nc(Nc4cc(C(C)N5CCN(C(=O)C6CC6)CC5)ccn4)[nH]c3c2)ncnc1N1CCCC1 (single isomer, unassigned) [Example 112.02, cyclopropyl(4-{(1R or 1S)-1-[2-({6-[5-methoxy-6-(pyrrolidin-1-yl)pyrimidin-4-yl]-1H-benzimidazol-2-yl}amino)pyridin-4-yl]ethyl}piperazin-1-yl)methanone] | 1.3 nM |
| CC(c1ccnc(Nc2nc3ccc(-c4cc(N5CC(F)(F)C5)ncn4)cc3[nH]2)c1)N1CCN(C(=O)C2CC2)CC1 (single isomer, unassigned) [Example 116.02, cyclopropyl(4-{(1R or 1S)-1-[2-({6-[6-(3,3-difluoroazetidin-1-yl)pyrimidin-4-yl]-1H-benzimidazol-2-yl}amino)pyridin-4-yl]ethyl}piperazin-1-yl)methanone] | 0.76 nM |
| COc1c(-c2ccc3nc(Nc4cc(CN5CCN(C(=O)CC(F)(F)F)CC5)ccn4)[nH]c3c2)ncnc1N(C)C [Example 107.01.03, 1-(4-{[2-({6-[6-(dimethylamino)-5-methoxypyrimidin-4-yl]-1H-benzimidazol-2-yl}amino)pyridin-4-yl]methyl}piperazin-1-yl)-3,3,3-trifluoropropan-1-one] | 13 nM |
| CC(c1ccnc(Nc2nc3ccc(-c4cc(N5CC(C(F)(F)F)C5)ncn4)cc3[nH]2)c1)N1CCN(C(=O)CC(F)(F)F)CC1 (single isomer, unassigned) [Example 164.02, 3,3,3-trifluoro-1-{4-[(1R or 1S)-1-{2-[(6-{6-[3-(trifluoromethyl)azetidin-1-yl]pyrimidin-4-yl}-1H-benzimidazol-2-yl)amino]pyridin-4-yl}ethyl]piperazin-1-yl}propan-1-one] | 0.943 nM |
| CC(c1ccnc(Nc2nc3ccc(-c4cc(N5CCOCC5)ncn4)cc3[nH]2)c1)N1CCN(C(=O)OC(C)(C)C)CC1 (single isomer, unassigned) [Example 118.01, tert-butyl 4-{(1R or 1S)-1-[2-({6-[6-(morpholin-4-yl)pyrimidin-4-yl]-1H-benzimidazol-2-yl}amino)pyridin-4-yl]ethyl}piperazine-1-carboxylate] | 7.9 nM |
